# Entries after “also recorded” stand apart in the source; their conditions may differ.
# Key:
# [1] = test system: EO771 or A549 flank tumors; test: FD-NIRS tissue oxygenation in tumor-bearing mice; assay type: in vivo
# Procedure: In vivo oxygenation measurements. All animal experiments were performed according to protocols approved by institutional IACUC review, with daily veterinarian observation. 2×10^6 EO771 or 5×10^6 A549 cells were injected s.c. into the flanks of 6-week old female immunocompromised nu/nu mice. Caliper measurements of opposing diameters were used to calculate the tumor volumes. Upon reaching […], the animals were anesthetized by inhalation of 1.5% isoflurane and tumor and thigh muscle oxygenation was measured with NIRS optical probe for 30 minutes. Once the baseline oxygenation was established, the animals were injected with either 2 mg per kg of body weight of papaverine hydrochloride or saline by tail vein. Tissue oxygenation was measured for 120 minutes. Obtained oxygenation values were normalized to time of injection and average of 5 traces per treatment averaged. Error bars represent the standard deviation.
# Frequency-domain near-infrared spectroscopy (FD-NIRS) can noninvasively quantify tissue hemoglobin concentration (THb) and oxygenation (SO2) in real time. This technology uses light in the 700-800 nm wavelength because it has reasonably good tissue penetration (nominally 1-2 cm in depth). A FD-NIRS system with a novel side firing probe to measure changes in tumor oxygenation in response to pharmacological intervention was developed and used in this example. This example has generated in vivo data showing that papaverine can increase oxygenation in xenografted tumors in mice.
# The FD-NIRS instrument consists of a network analyzer as the radio frequency (RF) source and phase-sensitive detection system, a 1×4 RF switch, a 4×2 optical switch, a multi-channel laser diode controller, four laser diodes (654, 779, 805 and 847 nm) installed in mounts with a bias-T, an avalanche photodiode (APD) module, and a laptop computer loaded with custom software. The surface probe consists of two side-firing source fibers (200/220/240 µm, NA=0.22) and a single side-firing detection fiber (600/660/710 µm, NA=0.22), providing two source-detector separations (SDSs) of 5 and 10 mm, respectively. The fiber tips are polished to a […] and coated with a mirror to create a light path perpendicular to the fiber. All the fiber tips are epoxied into a V-groove on a thin Delrin plate (biocompatible) so that it can be easily attached to the skin surface above a tumor. The two SDSs allow elimination of artifacts due to instrument response and the skin effects, while providing a penetration depth around 10-15 mm in typical tissue.
# The FD-NIRS instrument launches intensity-modulated continuous wave lasers into the tissue and collects the amplitude-attenuated and phase-shifted diffuse reflectance from the tissue at the same frequency of the incident light, both through the side-firing probe. […]
# cell lines of Table 1 = test: Cell lines tested for sensitivity to PPV (mitochondrial function); assay type: cell-based, Human, Murine, Canine; details: 29 cell lines: breast, colon, leukemia, lung, normal, osteosarcoma, pancreas, pharynx, tongue
# Procedure: Seahorse analysis of the OCR. Oxygen consumption rate (OCR) was measured using Seahorse XF96 Flux Analyzer (Agilent Technologies). The cells were seeded to attach overnight, wells were washed with pre-warmed XF Calibrant (Agilent Technologies) and the replaced with unbuffered Assay Medium (pH 7.4, 5 mM glucose, 1 mM L-glutamine). The plates were incubated at 37° C. in a CO2-free incubator for 2 hours prior to assay. For succinate rescue assay, cells were permeabilized using XF Plasma Membrane Permeabilizer Reagent (XF PMP, Agilent Technologies) according to the manufacturer's instructions. The OCR rate was measured in 1× Mitochondrial Assay Solution (MAS) (70 mM sucrose, 220 mM mannitol, 10 mM KH2PO4, 5 mM MgCl2, 2 mM Hepes, 0.6% (w/v) fatty acid-free BSA and 1 mM EGTA; pH 7.4). After baseline oxygenation was established, 1 μM rotenone or 10 μM PPV was injected at time A, followed by 5 mM succinate at time B. Error bars represent standard deviation. For the washout experiment, EO771 cells were seeded overnight, then treated with 10 μM PPV or 1 μM rotenone 3 hours prior to OCR measurement. Media was replaced 1 and 2 hours before measurement and OCR reported.
# PPV was tested in vitro to determine if it could decrease mitochondrial function in all cells tested in minutes at low micromolar concentrations (Table 1, FIG. 1A).
# [2] = Cellular toxicity of PPV derivatives by trypan blue; assay type: cell-based; details: 10 uM, 72 h
# Procedure: FIGS. 7A-7D show OCR and cellular toxicity data. […]. Bars represent mean OCR and PDE10 inhibitory activities from at least 5 (OCR) or 3 (PDE) replicates. All experiments were repeated at least twice. […] Values are mean+−SEM.
# Experimental: Cell lines. All cell lines were purchased from the American Type Culture Collection (ATCC) and grown DMEM (Corning) supplemented with 10% FBS (Seradigm) and 1% Penicillin/Streptomycin (Fisher Bioreagents) at 37° C. in 5% CO2. Cells were treated with inhibitors papaverine hydrochloride (Sigma-Aldrich), rotenone (Sigma-Aldrich), piericidin A (Santa Cruz), capsaicin (Sigma-Aldrich), antimycin A (Sigma-Aldrich) and succinic acid disodium salt (Sigma-Aldrich). Cell viability was assessed by trypan blue exclusion.
SMILES,"tumor oxygenation ([1]; 2 mg/kg by tail vein, within first 30-45 minutes)",oxygenation of normal thigh muscle ([1]; 2 mg/kg i.v.),"maximum tumor oxygenation above baseline ([1]; 2 mg/kg i.v., 30 min post injection)","oxygenation of normal thigh muscle ([1]; 2 mg/kg i.v., listed as papaverine)",sensitivity to PPV (cell lines of Table 1),cellular toxicity in vitro [2]
"COc1ccc(Cc2nccc3cc(OC)c(OC)cc23)cc1OC [PPV, papaverine]",significantly increased the oxygenation; also recorded: statistically significant,no significant change,1.35-1.45 × above baseline,no change was detected,List of cell lines positively tested for sensitivity to PPV,
COc1cc2ccnc(Cc3cccc4ccccc34)c2cc1OC [SMV-32],,,,,,Neither of these compounds shows cellular toxicity

# Source: patent publication US20210163453A1, “DERIVATIVES OF PAPAVERINE THAT ARE EFFECTIVE HYPOXIC TUMOR RADIOSENSITIZERS” (Ohio State Innovation Foundation, priority 2018, published 2021)
